Results as given in ChEMBL document CHEMBL1909046, “DrugMatrix in vitro pharmacology data”.

Legend:
[1] = target: T1, Muscarinic acetylcholine receptor M5 (Homo sapiens, UniProt P08912); format: cell membranes, CHO-K1, Membrane; conditions: cho-k1; also: in other assays of this panel Not Active means under 50% inhibition at 10 µM
T1 sequence (P08912 whole entry): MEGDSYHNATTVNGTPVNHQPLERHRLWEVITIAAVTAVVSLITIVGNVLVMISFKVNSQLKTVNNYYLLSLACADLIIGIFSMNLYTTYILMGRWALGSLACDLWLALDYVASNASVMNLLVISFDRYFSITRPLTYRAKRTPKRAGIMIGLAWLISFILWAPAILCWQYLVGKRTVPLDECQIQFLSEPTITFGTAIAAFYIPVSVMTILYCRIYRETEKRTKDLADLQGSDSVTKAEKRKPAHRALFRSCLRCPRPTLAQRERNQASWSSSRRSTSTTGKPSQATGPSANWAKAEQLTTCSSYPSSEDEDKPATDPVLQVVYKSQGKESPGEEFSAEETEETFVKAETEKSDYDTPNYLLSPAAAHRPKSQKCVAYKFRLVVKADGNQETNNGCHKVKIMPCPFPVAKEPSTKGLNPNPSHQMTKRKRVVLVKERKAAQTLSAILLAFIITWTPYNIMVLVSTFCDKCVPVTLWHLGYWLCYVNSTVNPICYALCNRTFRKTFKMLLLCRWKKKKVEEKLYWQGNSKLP

[2] = DRUGMATRIX: Tumor Necrosis Factor (TNF), Non-Selective radioligand binding (ligand: [125I] TNF-alpha); format: cell membranes, Membrane; conditions: u-937; Not Active = under 50% inhibition at 10 µM
[3] = DRUGMATRIX: Interleukin IL-1 radioligand binding (ligand: [125I] interleukin 1beta); format: cell membranes, Membrane; conditions: nih3t3; Not Active = under 50% inhibition at 10 µM
Substance-K receptor = target: T2, Substance-K receptor (Homo sapiens, UniProt P21452); format: cell membranes, CHO, Membrane; conditions: cho; also: in other assays of this panel Not Active means under 50% inhibition at 10 µM
T2 sequence (P21452 whole entry): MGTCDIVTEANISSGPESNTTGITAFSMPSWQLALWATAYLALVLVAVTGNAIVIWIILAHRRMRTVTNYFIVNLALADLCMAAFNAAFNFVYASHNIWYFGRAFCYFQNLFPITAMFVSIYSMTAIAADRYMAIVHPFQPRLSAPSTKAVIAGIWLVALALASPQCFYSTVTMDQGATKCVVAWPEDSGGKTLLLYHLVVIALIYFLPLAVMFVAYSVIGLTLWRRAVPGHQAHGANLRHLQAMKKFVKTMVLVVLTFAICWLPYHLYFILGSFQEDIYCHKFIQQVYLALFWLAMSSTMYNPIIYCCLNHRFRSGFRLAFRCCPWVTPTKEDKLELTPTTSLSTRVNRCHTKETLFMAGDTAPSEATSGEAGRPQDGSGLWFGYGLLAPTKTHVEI

Glucocorticoid receptor = target: T3, Glucocorticoid receptor (Homo sapiens, UniProt P04150); conditions: hela s3; also: in other assays of this panel Not Active means under 50% inhibition at 10 µM
T3 sequence (P04150 whole entry): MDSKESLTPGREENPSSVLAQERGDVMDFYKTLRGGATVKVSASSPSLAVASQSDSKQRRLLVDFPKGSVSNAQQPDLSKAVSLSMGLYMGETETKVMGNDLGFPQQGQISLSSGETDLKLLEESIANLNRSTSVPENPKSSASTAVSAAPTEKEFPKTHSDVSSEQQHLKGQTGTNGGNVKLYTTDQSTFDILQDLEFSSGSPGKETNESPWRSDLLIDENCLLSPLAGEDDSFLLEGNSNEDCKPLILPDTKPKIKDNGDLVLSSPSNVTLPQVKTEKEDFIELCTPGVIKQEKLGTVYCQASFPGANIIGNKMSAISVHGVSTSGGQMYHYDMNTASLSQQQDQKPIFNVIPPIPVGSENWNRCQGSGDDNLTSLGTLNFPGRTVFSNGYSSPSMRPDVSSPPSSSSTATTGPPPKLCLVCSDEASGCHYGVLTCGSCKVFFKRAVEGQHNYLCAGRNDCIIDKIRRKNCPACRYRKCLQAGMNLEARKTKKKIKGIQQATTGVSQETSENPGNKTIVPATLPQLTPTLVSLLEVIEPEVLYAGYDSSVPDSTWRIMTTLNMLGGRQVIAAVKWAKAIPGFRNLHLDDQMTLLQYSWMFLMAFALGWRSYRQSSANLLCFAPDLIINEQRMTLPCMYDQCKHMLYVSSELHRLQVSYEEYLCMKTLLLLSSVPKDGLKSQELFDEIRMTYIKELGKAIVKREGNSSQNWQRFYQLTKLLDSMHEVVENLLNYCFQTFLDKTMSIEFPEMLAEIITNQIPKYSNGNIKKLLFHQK

[4] = target: T4, C-X-C chemokine receptor type 2 (Homo sapiens, UniProt P25025); format: cell membranes, Membrane; conditions: cho-k1; also: in other assays of this panel Not Active means under 50% inhibition at 10 µM
T4 sequence (P25025 whole entry): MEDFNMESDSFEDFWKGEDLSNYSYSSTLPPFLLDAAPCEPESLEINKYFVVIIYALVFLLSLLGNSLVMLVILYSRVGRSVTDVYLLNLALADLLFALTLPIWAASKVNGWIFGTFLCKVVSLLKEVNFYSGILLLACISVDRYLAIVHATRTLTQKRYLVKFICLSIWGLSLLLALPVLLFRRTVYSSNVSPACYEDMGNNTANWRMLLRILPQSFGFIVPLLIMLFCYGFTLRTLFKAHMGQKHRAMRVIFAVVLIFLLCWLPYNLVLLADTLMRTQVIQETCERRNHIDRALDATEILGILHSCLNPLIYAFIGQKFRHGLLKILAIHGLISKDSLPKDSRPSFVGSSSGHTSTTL

Cytochrome P450 1A2 = target: T5, Cytochrome P450 1A2 (Homo sapiens, UniProt P05177); conditions: bti-tn-5b1-4; also: in other assays of this panel Not Active means under 50% inhibition at 10 µM
T5 sequence (P05177 whole entry): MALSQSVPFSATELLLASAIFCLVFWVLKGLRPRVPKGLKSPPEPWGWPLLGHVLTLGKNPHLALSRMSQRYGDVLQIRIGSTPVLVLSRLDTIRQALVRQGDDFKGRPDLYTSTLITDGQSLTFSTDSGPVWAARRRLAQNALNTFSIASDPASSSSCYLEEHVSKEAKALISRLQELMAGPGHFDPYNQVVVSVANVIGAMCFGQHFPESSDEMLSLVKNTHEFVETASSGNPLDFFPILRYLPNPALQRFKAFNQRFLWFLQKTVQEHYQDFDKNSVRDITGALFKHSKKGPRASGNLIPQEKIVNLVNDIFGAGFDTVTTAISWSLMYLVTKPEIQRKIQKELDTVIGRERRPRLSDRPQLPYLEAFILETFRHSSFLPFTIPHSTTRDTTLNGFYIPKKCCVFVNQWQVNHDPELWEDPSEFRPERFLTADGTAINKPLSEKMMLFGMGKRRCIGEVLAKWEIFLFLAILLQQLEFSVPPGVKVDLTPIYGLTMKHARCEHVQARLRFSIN

[5] = DRUGMATRIX: Platelet-Derived Growth Factor (PDGF) radioligand binding (ligand: [125I] PDGF); format: cell-based; conditions: nih3t3; Not Active = under 50% inhibition at 10 µM

CC(C)CN(C[C@@H](O)[C@H](Cc1ccccc1)NC(=O)O[C@H]1CCOC1)S(=O)(=O)c1ccc(N)cc1
Not Active: IC50 [1] | IC50 [2] | Ki [2] | IC50 [3] | Ki [3] | IC50 (Substance-K receptor) | IC50 (Glucocorticoid receptor) | IC50 [4] | IC50 (Cytochrome P450 1A2) | Ki (Cytochrome P450 1A2) | IC50 [5] | Ki [5]

Nc1nc2c(ncn2CCC(CO)CO)c(=O)[nH]1 [PENCICLOVIR]
Not Active: IC50 [1] | IC50 [2] | Ki [2] | IC50 [3] | Ki [3] | IC50 (Substance-K receptor) | IC50 (Glucocorticoid receptor) | IC50 [4] | IC50 (Cytochrome P450 1A2) | Ki (Cytochrome P450 1A2) | IC50 [5] | Ki [5]

CN(C)C(=O)Oc1cc(OC(=O)N(C)C)cc(C(O)CNC(C)(C)C)c1 (stereo unspecified) [BAMBUTEROL]
Not Active: IC50 [1] | IC50 [2] | Ki [2] | IC50 [3] | Ki [3] | IC50 (Substance-K receptor) | IC50 (Glucocorticoid receptor) | IC50 [4] | IC50 (Cytochrome P450 1A2) | Ki (Cytochrome P450 1A2) | IC50 [5] | Ki [5]

Nc1nc(N)nc(-c2cc(Cl)ccc2Cl)n1.O=C(O)/C=C\C(=O)O [IRSOGLADINE MALEATE]
Not Active: IC50 [1] | IC50 [2] | Ki [2] | IC50 [3] | Ki [3] | IC50 (Substance-K receptor) | IC50 (Glucocorticoid receptor) | IC50 [4] | IC50 (Cytochrome P450 1A2) | Ki (Cytochrome P450 1A2) | IC50 [5] | Ki [5]

Cc1ccc(-c2cc(C(F)(F)F)nn2-c2ccc(S(N)(=O)=O)cc2)cc1 [CELECOXIB]
Not Active: IC50 [1] | IC50 [2] | Ki [2] | IC50 [3] | Ki [3] | IC50 (Substance-K receptor) | IC50 (Glucocorticoid receptor) | IC50 [4] | IC50 (Cytochrome P450 1A2) | Ki (Cytochrome P450 1A2) | IC50 [5] | Ki [5]

CCC1(c2ccc(N)cc2)CCC(=O)NC1=O (stereo unspecified) [AMINOGLUTETHIMIDE]
Not Active: IC50 [1] | IC50 [2] | Ki [2] | IC50 [3] | Ki [3] | IC50 (Substance-K receptor) | IC50 (Glucocorticoid receptor) | IC50 [4] | IC50 (Cytochrome P450 1A2) | Ki (Cytochrome P450 1A2) | IC50 [5] | Ki [5]

Cc1ccc(/N=C/N(C)/C=N/c2ccc(C)cc2C)c(C)c1 [AMITRAZ]
Not Active: IC50 [1] | IC50 [2] | Ki [2] | IC50 [3] | Ki [3] | IC50 (Substance-K receptor) | IC50 (Glucocorticoid receptor) | IC50 [4] | IC50 (Cytochrome P450 1A2) | Ki (Cytochrome P450 1A2) | IC50 [5] | Ki [5]

C[C@H](CS)C(=O)N1CCC[C@H]1C(=O)O [CAPTOPRIL]
Not Active: IC50 [1] | IC50 [2] | Ki [2] | IC50 [3] | Ki [3] | IC50 (Substance-K receptor) | IC50 (Glucocorticoid receptor) | IC50 [4] | IC50 (Cytochrome P450 1A2) | Ki (Cytochrome P450 1A2) | IC50 [5] | Ki [5]
